Laboratory results reported in BindingDB's records for doi:10.1016/0960-894X(96)00399-X (1996).
pIC50: −log10 of the molar value.

Biological target: Inositol 1,4,5-trisphosphate receptor type 1 (Rattus norvegicus)
Assay: Compound was tested for inhibition of specific [3H]Ins(1,4,5)P3 binding to Inositol 1,4,5-trisphosphate receptor in rat cerebellar membranes.

SMILES: O=P(O)(O)OC1C(O)C(CO)C(OP(=O)(O)O)C(OP(=O)(O)O)C1O [Phosphoric acid mono-((3S,5R,6R)-3,5-dihydroxy-2-hydroxymethyl-4,6-bis-phosphonooxy-cyclohexyl) ester]
- pIC50: 7.57
